Data on 2 compounds can be found in patent publication US10189824B2, “Pyrimidine-diamine dual HSP90/TRAP1 inhibitors” (CalAsia Pharmaceuticals, Inc., priority 2014, dated 2019).

By Ki is commonly meant the equilibrium dissociation constant of an inhibitor or competing ligand from its target. The IC50 is the point on the concentration scale where inhibition reaches its midpoint. Broadly, the EC50 is the concentration at which the effect is half-maximal.

One assay relates to U251MG cells. The assay can be described thus: TMRE assay, cell-based (mitochondrial membrane potential). Particulars: for Decrease of specific TMRE fluorescence vs untreated: U251MG cells, 48 h. Here is the method:
[…] TMRE (200 nM) was then added to wells for 30 min and monitored for changes in fluorescence activity either by fluorescence microscopy using an inverted Zeiss LSM 710 confocal microscope or by spectrophotometry using a fluorescence plate reader (544ex/590em) after washing the cells. Specific TMRE fluorescence was calculated by comparison to matched wells pretreated with 20 uM FCCP for 10 min prior to addition of TMRE. For mitochondria assays, untreated U251MG cells grown to confluence in T75 culture flasks. Mitochondria from these cells were isolated using a mitochondria isolation kit (Thermo Scientific) and loaded with 0.1 mM TMRE in kit buffer at 37° C. for 20 min. After washing, the TMRE-loaded mitochondria (2 ug per well) were incubated in a 96 well black plate with test compounds and monitored kinetically at 30° C. for changes in fluorescence using a fluorescence plate reader (ex 544/em 590). The fluorescence intensity after treatment with 20 um FCCP in control wells corresponded to a fully depolarized state.
(§1) Mitochondrial integrity was evaluated using Tetramethylrhodamine ethyl ester (TMRE) assay. A TMRE assay kit (Abcam) was used to evaluate Hsp90/TRAP1 inhibitor-induced changes in mitochondrial membrane potential. […] TMRE (200 nM) was then added to wells for 30 min and monitored for changes in fluorescence activity using a fluorescence plate reader (ex544/em 590) after washing the cells. Specific TMRE fluorescence was calculated by comparison to matched wells pretreated with the depolarizing proton ionophore carbonyl cyanide 4-(trifluoromethoxy)phenylhydrazone (FCCP) at 20 uM 10 min prior to addition of TMRE. For mitochondria assays, mitochondria was isolated using a kit from Thermoscientific and loaded with 0.1 mM TMRE. TMRE-loaded mitochondria (2 μg per well) were incubated with test compounds and monitored kinetically at 30° C. for changes in fluorescence using a flurorescence plate reader (ex 544/em 590) (FIGS. 6A, 9A and 12).

The next assay has as its target T1, TRAP1 (Homo sapiens, UniProt Q12931).
T1 construct: Recombinant full-length human Hsp90 and 459 TRAP1 were cloned; 6His (TEV-cleavable) (N); made in house; host or cells: E. coli BL21 (DE3)
T1 sequence (Q12931 60-704): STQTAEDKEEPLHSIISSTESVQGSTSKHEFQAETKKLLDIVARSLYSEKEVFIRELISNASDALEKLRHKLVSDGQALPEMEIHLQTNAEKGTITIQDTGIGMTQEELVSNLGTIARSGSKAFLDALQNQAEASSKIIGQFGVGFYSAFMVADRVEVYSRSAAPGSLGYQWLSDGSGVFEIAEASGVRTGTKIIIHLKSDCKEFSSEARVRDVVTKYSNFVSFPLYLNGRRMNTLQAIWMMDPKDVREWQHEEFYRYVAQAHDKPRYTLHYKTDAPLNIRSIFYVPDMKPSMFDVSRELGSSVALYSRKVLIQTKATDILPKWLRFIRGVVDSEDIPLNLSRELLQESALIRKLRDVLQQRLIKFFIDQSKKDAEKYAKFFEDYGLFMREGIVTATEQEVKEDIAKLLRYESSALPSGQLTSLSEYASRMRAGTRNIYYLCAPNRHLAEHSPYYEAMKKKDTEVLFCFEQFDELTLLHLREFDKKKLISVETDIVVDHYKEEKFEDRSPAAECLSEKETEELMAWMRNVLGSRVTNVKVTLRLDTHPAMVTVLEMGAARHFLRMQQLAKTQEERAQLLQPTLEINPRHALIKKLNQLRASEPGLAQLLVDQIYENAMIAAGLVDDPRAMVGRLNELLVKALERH
The assay is described as follows: Fluorescence polarization (FP) displacement assay, GA-FITC, TRAP1. In kind it is binding. Particulars: FP displacement of GA-FITC, 200 nM TRAP1; for Ki: NA: Not active, read-out: Biochemical efficacy TRAP1 Ki. Here is the method:
(§2) Prior to transforming into BL21 (DE3) all the cloned vectors were sequence confirmed. Expressed proteins were purified using NTA resin (Life Technologies) followed by size exclusion chromatography using FPLC. The molecular mass of the purified proteins was confirmed by MALDI-TOF and assessed for purity by SDS-PAGE.
(§3) The assay conditions were 20 mM HEPES, pH-7.5, 50 mM KCl, 5 mM MgCl2, 20 mM sodium molybdate, 2 mM DTT, 0.01% NP40, 100 ug/ml BSA, 50 nM Hsp90 or 200 nM TRAP1, 1% DMSO, and 8 nM (for Hsp90) or 20 nM (for TRAP1) GA-FITC in the presence of increasing concentrations of test compound.

Assay [1] relates to Hsp70 levels in U251MG cells. The assay can be described thus: Biomarker quantitation by ELISA, Hsp70. It is filed as cell-based. Particulars: 15.6 uM, 48 h. Here is the method:
U251 cells were plated in 6 well format culture dishes overnight at 37° C. with 5% CO2 and then treated with increasing concentrations of test compounds for 48 h at 37° C. with 5% CO2. Quantification of total Akt1, EGFR, and Hsp70 in cell lysates was accomplished using ELISA kits (R&D Systems) according to the manufacturer's recommendations and utilizing a Synergy HT micro-titer plate reader (Biotek). Cell lysates were prepared as recommended in the kit procedure. Protein concentrations of lysates clarified using centrifugation were determined using a Bradford assay (Thermo Scientific), and the values were used to normalize the biomarker values.
A general note: An ELISA detects its analyte on a solid surface through an enzyme-linked reagent.

Assay [2] relates to U251MG cell mitochondrial respiration. The assay is described as follows: Mitochondrial respiratory function assay (OCR, Seahorse). In kind it is cell-based. Particulars: U251MG cells, stressed conditions (oligomycin, FCCP, rotenone); within minutes. Here is the method:
The effect of test compounds on the mitochondrial oxygen consumption rate (OCR) was determined in real time using a Seahorse Xr24 extracellular flux analyzer (Seahorse Bioscience). The cell-based assay was performed essentially as recommended by the manufacturer. Briefly, cells were seeded in a 24 well XF plate using an appropriate cell density. “Flux Pak” cartridge (containing the O2 and H^+ sensitive fluorophores) were hydrated in the XF calibrant solution overnight just prior to running the assay. On the following day, the cells were replenished with XF assay media (unbuffered DMEM containing 10 mM glucose and 2 mM pyruvate) and placed in a CO2 free 37° C. incubator for an additional one hour. Basal OCR was measured before the wells were injected with test compounds. Subsequently, mitochondrial bioenergetics stress was determined by treating the cells sequentially with 0.125 mg/ml Oligomycin (ATP synthase inhibitor), […] FCCP (uncoupler) and […] rotenone (Complex I inhibitor) while continuously measuring the OCR.

A further assay has as its target human Hsp90. The assay can be described thus: Fluorescence polarization (FP) displacement assay, GA-FITC, Hsp90. It is filed as binding. Particulars: FP displacement of GA-FITC, 50 nM Hsp90; for Ki: read-out: Biochemical efficacy HSP90 Ki. Here is the method:
as §2, §3
In general terms: Fluorescence polarisation rises when a labelled molecule tumbles more slowly, as on binding a larger partner.

A further assay deals with GBM43. The assay is described as follows: Cellular efficacy in Mayo Clinic GBM PDX cell line GBM43. It is filed as cell-based. Here is the method: Short-term explant cultures from PDX models were seeded into 96-well Perfecta3D hanging drop plates to form a single spheroid in each well after 2 days. The spheroids were transferred to a round bottom 96 well plate by centrifugation and then incubated with graded concentrations of test compound (8 spheroids per compound concentration). Spheroid volumes were monitored every 6 hours over the course of 5 days using the IncuCyte system (Essen BioScience, MI, US) to provide a growth curve akin to a tumor regrowth assay.

For another assay, the system named is MDA-MB-231 cells. The assay can be described thus: TMRE assay, MDA-MB-231 cell mitochondrial integrity. It is filed as cell-based. Particulars: 2 hours or 4 hours. Here is the method: as §1

As for `COc1c(C)cnc(CN(CCc2ccccn2)c2cc(Cl)nc(N)n2)c1C` [Compound 1, 6-chloro-4-N-[(4-methoxy-3,5-dimethylpyridin-2yl)methyl]-4-N-[2-(pyridine-2-yl)ethyl]pyrimidine-2,4-amine], the “Decrease of specific TMRE fluorescence vs untreated” value was 42% in the assay on U251MG cells (5 uM) and 73% with U251MG cells (50 uM). Moreover, the Ki on TRAP1 is 50.4 nM; at human Hsp90, 39.4 nM. Besides, the “Increase of Hsp70 levels” value in assay [1] amounted to 6 fold. Moreover, the “Effect on mitochondrial oxygen consumption rate” value in assay [2] is reported as “dose-dependent decrease”.
As to `COc1c(C)cnc(CN(CC2(c3ccc(F)cc3)CCOCC2)c2cc(Cl)nc(N)n2)c1C` [Compound A, 6-chloro-4-N-{[4-(4-fluorophenyl)oxan-4-yl]methyl}-4-N-[(4-methoxy-3,5-dimethylpyridin-2-yl)methyl]pyrimidine-2,4-diamine], the “Effect on TMRE fluorescence of U251MG cells” value with U251MG cells (2 hour or 4 hr) was “dose-dependent decrease”. For the same compound, the results for the Ki at TRAP1 and at human Hsp90 were 39 nM and 11 nM, respectively. The IC50 on TRAP1 (read-out: Biochemical efficacy TRAP1 IC50) was 312 nM; at human Hsp90 (read-out: Biochemical efficacy HSP90 IC50), 44 nM. Also, in the assay on GBM43, the EC50 worked out at 280 nM. The “Effect on TMRE fluorescence of MDA-MB-231 cells” value in the assay with MDA-MB-231 cells is “dose-dependent decrease”.
